Test results as given in patent US11008313B2, “Substituted 1-methyl-1,2,3,4-tetrahydroisoquinoline molecules as PCSK9 allosteric binders” (Merck Sharp & Dohme Corp., priority 2016, dated 2021).

Columns and labels:
[1] = biological target: T1, HEK293 cells stably overexpressing PCSK9 (Homo sapiens, UniProt Q8NBP7); assay: Protein degradation assay (Western Blot/Sally Sue assay); assay type: cell-based; details: 24 hrs compound treatment, serum free DMEM; for PCSK9 DC50 (Mature) μM: mature PCSK9 protein level lowered by 50%; for PCSK9 DC50 (Pro) μM: pro PCSK9 protein level lowered by 50%
T1 construct: expressed in transfected cells
Procedure: Samples were run on the Sally Simple Western system from ProteinSimple (San Jose, Calif.) using default assay conditions. Briefly, 5×10^4 HEK293 cells stably overexpressing PCSK9 were seeded into Collagen I coated 96 well plates and allowed to recover overnight at 37° C. with 5% CO2. After 24 hrs of compound treatment in serum free DMEM cell culture medium, cells were washed with PBS and lysed in 100 ul RIPA buffer (Teknova) supplemented with protease inhibitors and subsequently mixed with fluorescent standards as per manufacturer's specifications, followed by denaturation at 95° C. for 5 minutes. Anti-PCSK9 mAb antibody (Abbomax, Cat. No. 601-650) was used for PCSK9 detection. The reported DC50 values represent the effective concentration of compound to lower PCSK9 protein levels, pro and mature, by 50%.

[2] = biological target: PCSK9 (Homo sapiens, UniProt Q8NBP7); assay: Fluorescence polarization competition binding assay (probe: compound of Example 57); details: 2 μM PCSK9, 50 nM compound of Example 57 as probe, overnight incubation; read-out: FP IC
Chain of PCSK9 (Q8NBP7 153-692): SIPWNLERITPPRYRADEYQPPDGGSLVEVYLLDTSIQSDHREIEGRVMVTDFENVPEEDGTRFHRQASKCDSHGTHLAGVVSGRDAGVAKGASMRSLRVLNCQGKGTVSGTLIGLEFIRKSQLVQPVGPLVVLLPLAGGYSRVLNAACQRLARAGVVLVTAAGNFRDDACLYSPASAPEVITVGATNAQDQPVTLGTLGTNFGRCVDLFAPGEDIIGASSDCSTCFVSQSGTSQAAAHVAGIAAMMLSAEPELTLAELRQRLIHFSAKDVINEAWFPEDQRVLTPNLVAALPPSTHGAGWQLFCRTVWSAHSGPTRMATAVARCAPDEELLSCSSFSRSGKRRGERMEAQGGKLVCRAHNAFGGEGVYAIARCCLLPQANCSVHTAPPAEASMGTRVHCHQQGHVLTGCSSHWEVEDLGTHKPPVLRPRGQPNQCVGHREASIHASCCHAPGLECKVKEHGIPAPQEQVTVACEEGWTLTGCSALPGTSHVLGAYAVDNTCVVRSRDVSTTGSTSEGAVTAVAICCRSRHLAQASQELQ
In short: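 Competition fluorescence-polarization binding: 2 μM PCSK9 with 50 nM fluorescent probe in 20 mM HEPES pH 7.5, 150 mM NaCl, 1 mM CaCl2, 0.005% P-20, incubated with test compound overnight in the dark. Anisotropy read; % inhibition relative to DMSO wells and probe-without-PCSK9 wells.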

SMILES	PCSK9 DC50 (Mature) μM [1]	PCSK9 DC50 (Pro) μM [1]	IC50 [2] [µM]
COC(=O)c1ccc(-c2ccc(Oc3cc4c(cc3OCCOCCNC(=O)COCC(=O)N[C@H](C(=O)N3C[C@H](O)C[C@H]3C(=O)NCc3ccc(-c5scnc5C)cc3)C(C)(C)C)CCN[C@]4(C)CC(=O)Nc3nccs3)cc2F)cc1 [Example 107, methyl 2′-fluoro-4′-(((R)-6-(((S)-13-((2S,4R)-4-hydroxy-2-((4-(4-methylthiazol-5-yl)benzyl)carbamoyl)pyrrolidine-1-carbonyl)-14,14-dimethyl-7,11-dioxo-3,9-dioxa-6,12-diazapentadecyl)oxy)-1-methyl-1-(2-oxo-2-(thiazol-2-ylamino)ethyl)-1,2,3,4-tetrahydroisoquinolin-7-yl)oxy)-[1,1′-biphenyl]-4-carboxylate]	inactive	Inactive	0.831
CC(C)Cc1ccc([C@H](C)C(=O)NCCOCCOc2cc3c(cc2Oc2ccc(-c4ccc(C(=O)O)cc4)c(F)c2)[C@@](C)(CC(=O)Nc2nccs2)NCC3)cc1 [Example 108]	inactive	Inactive	0.578
